Reference: patent publication US8802674B2, “Aminopyrimidine derivatives as LRRK2 modulators” (Genentech, Inc., priority 2011, dated 2014)
pKi: −log10 of the molar value.

Molecular target: LRRK2 (Homo sapiens (Human), UniProt Q5S007, G2019S)
Test: In Vitro LRRK2 LabChip Assay
Assay type: biochemical
Protocol: In Vitro LRRK2 LabChip Assay
This assay was used to determine a compound's potency in inhibiting activity of LRRK2 by determining, Kiapp, IC50, or percent inhibition values. In a polypropylene plate, LRRK2, fluorescently-labeled peptide substrate, ATP and test compound were incubated together. Using a LabChip 3000 (Caliper Life Sciences), after the reaction the substrate was separated by capillary electrophoresis into two populations: phosphorylated and unphosphorylated. The relative amounts of each were quantitated by fluorescence intensity. LRRK2 Ki was determined according to the equation: Y=V0*(1−((x+Ki*(1+S/Km)+Et)/(2*Et)−(((x+Ki*(1+S/Km)+Et)^2−(4*Et*x))^0.5)/(2*Et))). Ki values in Table 4 and elsewhere herein are shown in μM.
Assay conditions and materials used were as follows:
Compound Plate Preparation:
For serial dilutions, 34.6 μl DMSO was added to columns 3-24. For the assay controls, 37.5 μl DMSO was added to columns 1 and 2 of rows A and P. a,d and 50 μl 25 μM G-028831 (Staurosporine) was added to columns 1 and 2, row B. For the samples: to start at 100 μM, 37.5 μl DMSO was to columns 1 and 2, then 12.5 μl 10 mM compound; to start at 10 μM, 78 μl DMSO was added to columns 1 & 2, then 2 μl 10 mM compound; and to start at 1 μM, 25 μM compound (2 μl 10 mM cmpd+798 μl DMSO) was added to empty columns 1 and 2. A Precision instrument was used to perform 1:3.16 serial dilutions (“PLK_BM_serial_halflog”).
ATP was diluted to 282.1 μM in Complete Kinase Buffer (final concentration was 130 μM).
Total and Blank Preparation:
In Complete Reaction Buffer, substrate was diluted to 4 μM. Equal volumes of Complete Reaction Buffer and 4 μM substrate were combined to obtain the blank. Equal volumes of Complete Reaction Buffer and 4 μM substrate were combined and to the combined solution was added 2× final LRRK2 concentration.
To a 50 μl polypropylene plate, 5 μl/well buffer/substrate was added by hand to Blank wells. A Biomek FX was used to start the kinase reaction (“PLK SAR 23 ATP”). The following were added to the appropriate wells:
5 μl/well compound/ATP in Assay Plate;
5 μl/well kinase/substrate in Assay Plate;
The plate was incubated for 2 hours in the dark. Biomek FX was used to stop the kinase reaction (“PLK Stop”), and 10 μl/well Stop solution was added to the Assay Plate. Results were read on the LabChip 3000.
The LabChip 3000 was run using the job “LRRK2IC50” with the following job settings: […]

Chain of LRRK2 (Q5S007 970-2527 G2019S limits assumed): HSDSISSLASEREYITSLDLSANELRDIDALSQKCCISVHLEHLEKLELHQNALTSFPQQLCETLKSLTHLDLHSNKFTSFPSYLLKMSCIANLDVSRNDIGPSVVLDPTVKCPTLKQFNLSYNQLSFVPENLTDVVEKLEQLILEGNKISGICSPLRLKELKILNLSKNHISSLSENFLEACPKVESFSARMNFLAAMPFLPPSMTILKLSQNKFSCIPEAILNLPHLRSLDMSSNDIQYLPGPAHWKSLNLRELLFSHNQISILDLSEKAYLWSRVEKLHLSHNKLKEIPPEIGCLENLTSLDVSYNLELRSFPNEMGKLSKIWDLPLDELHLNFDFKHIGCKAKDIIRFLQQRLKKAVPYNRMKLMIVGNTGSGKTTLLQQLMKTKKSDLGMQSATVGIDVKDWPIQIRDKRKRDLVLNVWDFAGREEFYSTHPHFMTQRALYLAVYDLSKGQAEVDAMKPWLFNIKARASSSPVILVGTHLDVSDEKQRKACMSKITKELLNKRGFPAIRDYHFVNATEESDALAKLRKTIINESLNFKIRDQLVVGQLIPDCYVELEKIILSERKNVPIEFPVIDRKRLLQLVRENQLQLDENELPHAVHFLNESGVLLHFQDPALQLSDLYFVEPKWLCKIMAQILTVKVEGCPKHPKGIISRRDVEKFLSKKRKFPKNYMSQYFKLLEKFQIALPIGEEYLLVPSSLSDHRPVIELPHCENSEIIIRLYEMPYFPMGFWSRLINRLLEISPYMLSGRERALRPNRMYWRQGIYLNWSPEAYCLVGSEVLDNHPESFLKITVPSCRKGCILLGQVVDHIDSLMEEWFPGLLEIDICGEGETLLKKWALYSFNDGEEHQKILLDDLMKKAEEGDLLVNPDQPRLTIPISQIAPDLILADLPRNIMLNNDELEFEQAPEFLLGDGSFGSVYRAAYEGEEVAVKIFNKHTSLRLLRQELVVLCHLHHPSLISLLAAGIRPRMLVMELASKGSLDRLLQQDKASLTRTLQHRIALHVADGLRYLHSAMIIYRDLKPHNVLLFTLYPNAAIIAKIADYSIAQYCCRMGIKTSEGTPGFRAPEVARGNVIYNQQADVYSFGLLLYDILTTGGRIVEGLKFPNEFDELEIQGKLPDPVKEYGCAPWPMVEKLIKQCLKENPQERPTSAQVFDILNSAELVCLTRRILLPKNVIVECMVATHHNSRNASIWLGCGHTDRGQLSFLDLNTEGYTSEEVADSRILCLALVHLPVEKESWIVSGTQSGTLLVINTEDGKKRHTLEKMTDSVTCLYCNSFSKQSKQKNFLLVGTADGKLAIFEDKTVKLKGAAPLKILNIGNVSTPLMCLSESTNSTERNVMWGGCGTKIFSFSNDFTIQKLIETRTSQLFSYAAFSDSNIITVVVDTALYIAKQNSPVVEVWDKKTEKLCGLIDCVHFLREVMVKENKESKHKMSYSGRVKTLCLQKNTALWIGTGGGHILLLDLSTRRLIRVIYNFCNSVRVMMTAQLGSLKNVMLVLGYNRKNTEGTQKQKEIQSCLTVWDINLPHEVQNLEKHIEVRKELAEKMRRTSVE

| pKi (Table 4) | Structure (SMILES) | other results |
| --- | --- | --- |
| 8.18 | CNC(=O)c1ccc(Nc2ncc(C#N)c(NC)n2)c(OC)c1 [Example 197, 4-(5-Cyano-4-methylamino-pyrimidin-2-ylamino)-3-methoxy-N-methyl-benzamide] |  |
| 8.03 | CNc1nc(Nc2ccc(C(=O)N3CCC(F)C3)cc2OC)ncc1C#N (stereo in doubt) [Example 210, 2-[4-((R)-3-Fluoropyrrolidine-1-carbonyl)-2-methoxy-phenylamino]-4-methylamino-pyrimidine-5-carbonitrile] |  |
| 8.39 | CNc1nc(Nc2cc(OC)c(C(=O)N3CCNCC3)cc2Cl)ncc1C(F)(F)F [Example 176, [5-Chloro-2-methoxy-4-(4-methylamino-5-trifluoromethyl-pyrimidin-2-ylamino)-phenyl]-piperazin-1-yl-methanone] |  |
| 8.54 | CNc1nc(Nc2cc(F)c(C(=O)N3CCOCC3)cc2OC)ncc1C(F)(F)F [Example 239, [2-Fluoro-5-methoxy-4-(4-methylamino-5-trifluoromethyl-pyrimidin-2-ylamino)-phenyl]-moipholin-4-yl-methanone] |  |
| 8.05 | CNc1nc(Nc2ccc(CC(=O)N3CCOCC3)cc2OC)ncc1Cl [Example 222, 2-[4-(5-Chloro-4-methylamino-pyrimidin-2-ylamino)-3-methoxy-phenyl]-1-morpholin-4-yl-ethanone] |  |
| 8.32 | CNc1nc(Nc2cc(OC)c(C(=O)N3CCOCC3)cc2F)ncc1C(F)(F)F [Example 237, (5-fluoro-2-methoxy-4-(4-(methylamino)-5-(trifluoromethyl)pyrimidin-2-ylamino)phenyl) (morpholino)methanone] |  |
| 8.47 | CNc1nc(Nc2cc(OC)c(CC(=O)N3CCOCC3)cc2OC)ncc1Br [Example 220, 2-[4-(5-Bromo-4-methylamino-pyrimidin-2-ylamino)-2,5-dimethoxy-phenyl] 1-morpholin-4-yl-ethanone] |  |
| 8.04 | CNc1nc(Nc2cc(F)c(C(=O)N(C)CC(C)(C)O)cc2OC)ncc1C(F)(F)F [Example 248, 2-fluoro-N-(2-hydroxy-2-methylpropyl)-5-methoxy-N-methyl-4-(4-(methylamino)-5-(trifluoromethyl)pyrimidin-2-ylamino)benzamide] |  |
| 7.62 | CNc1nc(Nc2ccc(C(=O)N3CCOCC3)cc2C2CC2)ncc1Cl [Example 193, [4-(5-Chloro-4-methylamino-pyrimidin-2-ylamino)-3-cyclopropyl-phenyl]-morpholin-4-yl-methanone] |  |
| 8.19 | CNc1nc(Nc2ccc(C(=O)NC3CC(F)(F)C3)cc2OC)ncc1C#N [Example 194, 4-(5-Cyano-4-methylamino-pyrimidin-2-ylamino)-N-(3,3-difluoro-cyclobutyl)-3-methoxy-benzamide] |  |
| 8.28 | CNc1nc(Nc2ccc(CC(=O)N3CCOCC3)cc2OC)ncc1C(F)(F)F [Example 223, 2-[3-Methoxy-4-(4-methylamino-5-trifluoromethyl-pyrimidin-2-ylamino)-phenyl]-1-morpholin-4-yl-ethanone] |  |

Further lines, the molecule ahead of its results:

| Structure (SMILES) | pKi (Table 4) | other results |
| --- | --- | --- |
| CCNc1nc(Nc2cc(F)c(C(=O)N3CCOCC3)cc2OC)ncc1Cl [Example 87, [4-(5-Chloro-4-ethylamino-pyrimidin-2-ylamino)-2-fluoro-5-methoxy-phenyl]-morpholin-4-yl-methanone] | 8.60 |  |
| CNc1nc(Nc2cc(OC)c(C(=O)N(C)C)cc2Cl)ncc1Cl [Example 140, 5-Chloro-4-(5-chloro-4-methylamino-pyrimidin-2-ylamino)-2-methoxy-N,N-dimethyl-benzamide] | 7.93 |  |
| CNc1nc(Nc2cc(OC)c(C(=O)N3CC(O)C3)cc2Cl)ncc1Cl [Example 169, [5-Chloro-4-(5-chloro-4-methylamino-pyrimidin-2-ylamino)-2-methoxy-phenyl]-(3-hydroxy-azetidin-1-yl)-methanone] | 8.27 |  |
| CCNc1nc(Nc2cc(F)c(C(=O)N(C)CCOC)cc2OC)ncc1C(F)(F)F [Example 304, 4-(4-Ethylamino-5-trifluoromethyl-pyrimidin-2-ylamino)-2-fluoro-5-methoxy-N-(2-methoxy-ethyl)-N-methyl-benzamide] |  | pKi (Table 6): 8.80 |
| CNc1nc(Nc2ccc(C(=O)N3CCCC(C(F)(F)F)C3)cc2OC)ncc1Cl (centres unmarked) [Example 26, [4-(5-Chloro-4-methylamino-pyrimidin-2-ylamino)-3-methoxy-phenyl]-(3-trifluoromethyl-piperidin-1-yl)-methanone] | 8.55 |  |
| CNc1nc(Nc2ccc(C(=O)NC(C)C)cc2OC)ncc1Cl [Example 53, 4-(5-Chloro-4-methylamino-pyrimidin-2-ylamino)-N-isopropyl-3-methoxy-benzamide] | 8.70 |  |
| CNc1nc(Nc2cc(Cl)c(C(=O)N3CCOCC3)cc2OC)ncc1C(F)(F)F [Example 292, [2-Chloro-5-methoxy-4-(4-methylamino-5-trifluoromethyl-pyrimidin-2-ylamino)-phenyl]-morpholin-4-yl-methanone] |  | pKi (Table 6): 8.70 |
| CCOc1cc(C(=O)N2CCOCC2)ccc1Nc1ncc(Cl)c(NC)n1 [Example 49, [4-(5-Chloro-4-methylamino-pyrimidin-2-ylamino)-3-ethoxy-phenyl]-morpholin-4-yl-methanone] | 8.37 |  |
| CCN(CCOC)C(=O)c1cc(OC)c(Nc2ncc(C(F)(F)F)c(NC)n2)cc1F [Example 308, N-Ethyl-2-fluoro-5-methoxy-N-(2-methoxy-ethyl)-4-(4-methylamino-5-trifluoromethyl-pyrimidin-2-ylamino)-benzamide] |  | pKi (Table 6): 8.46 |
| CNc1nc(Nc2ccc(C(=O)N3CCC(F)(F)CC3)cc2OC)ncc1Cl [Example 17, [4-(5-Chloro-4-methylamino-pyrimidin-2-ylamino)-3-methoxy-phenyl]-(4,4-difluoro-piperidin-1-yl)-methanone] | 8.52 |  |
| CNc1nc(Nc2ccc(C(=O)N3CCC(O)CC3)cc2OC)ncc1F [Example 2, [4-(5-Fluoro-4-methylamino-pyrimidin-2-ylamino)-3-methoxy-phenyl]-(4-hydroxy-piperidin-1-yl)-methanone] | 7.35 |  |
| CCNc1nc(Nc2ccc(C(=O)N3CCOCC3)cc2OC)ncc1C(F)(F)F [Example 257] |  | pKi (Table 5): 8.70 |
| COc1nc(Nc2ccc(C(=O)N3CCOCC3)cc2Cl)ncc1Cl [Example 261, [3-Chloro-4-(5-chloro-4-methoxy-pyrimidin-2-ylamino)-phenyl]-morpholin-4-yl-methanone] |  | pKi (Table 5): 7.33 |
| CNc1nc(Nc2ccc(C(=O)NC3CC3)cc2OC)ncc1Cl [Example 5, 4-(5-Chloro-4-methylamino-pyrimidin-2-ylamino)-N-cyclopropyl-3-methoxy-benzamide] | 8.62 |  |
| COc1cc(C(=O)N2CC(N3CCOCC3)C2)ccc1Nc1ncc(Br)c(OC)n1 [Example 88, [4-(5-Bromo-4-methoxy-pyrimidin-2-ylamino)-3-methoxy-phenyl]-(3-morpholin-4-yl-azetidin-1-yl)-methanone] | 8.30 |  |
| COc1cc(C(=O)N2CCOCC2)ccc1Nc1ncc(C(F)(F)F)c(N2CCCC2)n1 [Example 268, [3-Methoxy-4-(4-pyrrolidin-1-yl-5-trifluoromethyl-pyrimidin-2-ylamino)-phenyl]-morpholin-4-yl-methanone] |  | pKi (Table 6): 7.72 |
| CNc1nc(Nc2cc(F)c(C(=O)N3C[C@@H](C)O[C@@H](C)C3)cc2OC)ncc1C#N [Example 318, 2-[4-((2R,6S)-2,6-Dimethyl-morpholine-4-carbonyl)-5-fluoro-2-methoxy-phenylamino]-4-methylamino-pyrimidine-5-carbonitrile] |  | pKi (Table 7): 7.43 |
| CNc1nc(Nc2ccc(C(=O)N(C)C)cc2OC)ncc1Cl [Example 4, 4-(5-Chloro-4-methylamino-pyrimidin-2-ylamino)-3-methoxy-N,N-dimethyl-benzamide] | 8.21 |  |
| CNc1nc(Nc2ccc(C(=O)N3CCN(C(=O)C4CC4)CC3)cc2OC)ncc1Cl [Example 70, [4-(5-Chloro-4-methylamino-pyrimidin-2-ylamino)-3-methoxy-phenyl]-(4-cyclopropanecarbonyl-piperazin-1-yl)-methanone] | 8.66 |  |
| CNc1nc(Nc2ccc(C(=O)NCCCN)cc2OC)ncc1Cl [Example 65, N-(3-Amino-propyl)-4-(5-chloro-4-methylamino-pyrimidin-2-ylamino)-3-methoxy-benzamide] | 8.64 |  |
| CCNc1nc(Nc2cc(OC)c(C(=O)NCCOC)cc2Cl)ncc1C(F)(F)F [Example 149, 5-Chloro-4-(4-ethylamino-5-trifluoromethyl-pyrimidin-2-ylamino)-2-methoxy-N-(2-methoxy-ethyl)-benzamide] | 8.03 |  |
